The test system of one data set is FOCUS HCC cells. Description: colony formation assay. It is filed as cell-based, human. The note with it: 1.25 μM. Here is the method: (§1) A MTT assay was performed to evaluate the effect of MO-1-1100 on cell proliferation and viability. MTT is reduced to purple formazan in living cells. FOCUS cells were used as a high ASPH expressing human HCC cell line. […] The MTT assay measures cellular metabolic activity via NAD(P)H-dependent cellular oxidoreductase enzymes. […] In order to evaluate the effect of long-term exposure of MO-1-1100, the colony formation assay (an assay of malignant potential and phenotype) in which cells were treated with inhibitor for 3 weeks was performed.

A further data set deals with NIH-3T3 cells. Description: MTT assay (cell proliferation, metabolic activity). It is filed as cell-based, mouse. As to the method: as §1
In general terms: Tetrazolium dyes change colour on reduction, which living cells bring about.

Data set [1] has as its system FOCUS cells. Kind of data set: MTT assay (cell proliferation, metabolic activity). It is filed as cell-based, human. The note with it: micromolar concentrations. Here is the method:
as §1

Data set [2] has as its system FOCUS cells. Description: directional motility, Boyden chamber-type culture inserts. Type of data set: cell-based, human. The conditions noted are these: 5 μM pretreatment for 24 hours, migration 30 min. Here is the method: (§2) The β-hydroxylase activity is required for ASPH to mediate its effects on cell motility. Directional motility was measured using Boyden chamber-type culture inserts equipped with porous membranes. FOCUS cells were pretreated with 5 μM of MO-1-1100 and MO-1-500 β-hydroxylase inhibitor for 24 hours, and then placed into the upper chamber. Migration was allowed to proceed for 30 min. ATPLite was used to quantify viable cell density. The cells in the upper well and upper surface of membrane reflects the number of non-migrating cells, luminescence measured at the bottom surface of the membrane reflects the number of migrating and non-adherent cells and luminescence measured in the bottom well was reflect migrating and non-adherent cells. […] Cell invasiveness was assessed by invasion assay using matrigel coated membrane, in which cells were allowed to proceed for 6 hours; those found adhered on the bottom surface of membrane were regarded as invading cells.

The target of data set [3] is T1, ASPH (Homo sapiens, UniProt Q12797).
T1 sequence (Q12797 1-758): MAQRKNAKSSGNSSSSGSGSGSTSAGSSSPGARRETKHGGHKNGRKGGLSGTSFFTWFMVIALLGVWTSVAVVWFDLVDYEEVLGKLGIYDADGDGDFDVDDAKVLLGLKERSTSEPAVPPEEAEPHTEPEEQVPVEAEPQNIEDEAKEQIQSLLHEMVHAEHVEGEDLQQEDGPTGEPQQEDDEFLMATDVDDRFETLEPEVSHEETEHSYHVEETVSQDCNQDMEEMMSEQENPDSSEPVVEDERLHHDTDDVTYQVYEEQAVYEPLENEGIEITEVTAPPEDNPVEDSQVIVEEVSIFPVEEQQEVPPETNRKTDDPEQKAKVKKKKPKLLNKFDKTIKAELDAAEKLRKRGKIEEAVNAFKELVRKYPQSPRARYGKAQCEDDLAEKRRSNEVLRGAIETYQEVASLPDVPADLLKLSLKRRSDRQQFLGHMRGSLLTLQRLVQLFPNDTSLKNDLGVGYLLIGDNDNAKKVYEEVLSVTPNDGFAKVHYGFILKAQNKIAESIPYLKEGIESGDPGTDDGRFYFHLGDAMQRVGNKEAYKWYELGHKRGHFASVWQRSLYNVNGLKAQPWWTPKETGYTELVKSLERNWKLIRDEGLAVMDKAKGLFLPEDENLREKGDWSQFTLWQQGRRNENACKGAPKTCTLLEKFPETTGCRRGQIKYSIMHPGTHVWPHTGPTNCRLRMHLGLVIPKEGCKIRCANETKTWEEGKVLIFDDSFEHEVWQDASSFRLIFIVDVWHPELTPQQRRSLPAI
Kind of data set: high throughput 14CO2 capture enzymatic assay for ASPH β-hydroxylase activity (ASPH mAb capture from lysates of treated FOCUS cells). It is filed as biochemical. The arrangement: endogenous in cells; host or cells: FOCUS cells (human hepatocellular carcinoma line). Here is the method: In yet another aspect, the disclosure provides a method determining ASPH activity by contacting an EGF-like domain peptide with a detectably-labeled α-ketoglutarate and ASPH enzyme and measuring β-hydroxylase activity. In one embodiment, said α-ketoglutarate is ^14C-labelled, and wherein β-hydroxylase activity is measured by detecting liberated ^14CO2. In one embodiment, said liberated ^14CO2 is captured on a filter and radioactivity quantified. […] In one embodiment, said EGF-like domain comprises the amino acid sequence of […] (SEQ ID NO:1). In one embodiment, said EGF-like domain peptide comprises the consensus sequence of CDXXXCXXKXGNGXCDXXCNNAACXXDGXDC (SEQ ID NO: 2).
FIG. 3A is a diagram of the biochemical reaction catalyzed by ASPH derived from PC cell lysates. FIG. 3B is a cartoon illustrating the read-out to quantify ASPH activity in PC cells and tumors. FIG. 3C is an image of membrane was obtained by a phosphor-imager after a 16 hour exposure of the trapping filter to a phospho-screen. FIG. 3D is a bar graph showing intensities were calculated by Image J software and compared to a DMSO control. Vertical bars represent standard deviation. These figures show methods of measurement and data relating to ASPH catalytic activity.
EGF and EGF-like domains are well known in the art and generally include six cysteine residues which have been shown (in EGF) to be involved in disulfide bonds. The main structure is a two-stranded beta-sheet followed by a loop to a C-terminal short two-stranded sheet. Subdomains between the conserved cysteines vary in length. Examples include those described in Davis, C G, 1990, New Biol. 2(5):410-9; Blomquist et al., 1984, Proc Natl Acad Sci USA. 81(23):7363-7; Hommel et al., […], J Mol Biol. 227(1):271-82; Doolittle et al., 1984, Nature. 307(5951):558-60; Appella et al., 1988, FEBS Lett. 231(1):1-4; Sorkin A., 2001, Biochem Soc Trans. August; 29(Pt 4):480-4; each of which is hereby incorporated by reference). FIGS. 3A-C represents the strategy for development and characterization of the performance of an assay to measure ASPH enzymatic activity. FIG. 3A describes the biochemical reaction catalyzed by ASPH. FIG. 3B depicts the read-out of the assay. Protein lysates were extracted from FOCUS cells (high level of ASPH cell surface expression) treated with 1-10 μM of each parent compound for 24 hours. The lysates were added into 96 well-plates coated with ASPH monoclonal antibodies (mAbs) to add an antigen specific (ASPH) capture step to the assay design. After incubation and washing, only ASPH is captured on each well. The reaction is carried out with 60 μM of an EGF domain containing 39AA peptide, 100 μM FeCl2 and 40 μM ^14C labeled α-ketoglutarate were added into each well. The ^14CO2 was captured on a glass fiber membrane soaked in Ca(OH)2. […] The compound was further characterized for clinical use as an anti-tumor agent for PC and HCC and other ASPH-expressing tumors.

Data set [4] addresses T1, ASPH. Description: binding to ASPH by isothermal titration calorimetry. An excerpt: In the second step arylhydroxytetronimide was sulfonylated with phenylmethansulfonyl chloride in dry tetrahydrofuran to yield compounds of formula 1 (shown below). Compounds were characterized by 1H and 13C nuclear magnetic resonance, high resolution mass spectroscopy, high performance liquid chromatography, infra-red spectroscopy, melting point, elemental analysis and binding to ASPH by isothermal titration calorimetry.
Candidate parent compounds were selected as inhibitors for β-hydroxylase activity based on crystal structure of the catalytic site in the C-terminal region of ASPH and computer assisted drug design.
Background: ITC needs no label: the signal is the heat of the interaction.

In data set [5] the test system is FOCUS cells. Description: invasion assay using matrigel coated membrane. Type of data set: cell-based, human. The note with it: 6 hours, compared to DMSO control. As to the method:
as §2

Data set [6] deals with FOCUS cells. Kind of data set: anchorage independent growth in soft agar. Type of data set: cell-based, human. As to the method:
The effect of MO-1-1100 on anchorage independent growth in soft agar was evaluated. The ability of forming colonosphere in soft agar is considered to be a rigid test for tumorigenic potential. ASPH expression results in cells acquiring the ability to form colonospheres in soft agar. […] In order to evaluate the effect of ASPH inhibitor for anchorage independent colony formation, FOCUS cells were incubated in soft agar with or without this ASPH enzymatic inhibitor. After 3 weeks incubation, MO-1-1100 reduced colonosphere formation of FOCUS cells (FIG. 9A). […] This assay is a standard method to monitor malignant growth that reflects the ability to form tumors that grow aggressively in vivo.

“Also recorded” adds a separate entry of the source.

The text below walks through data of patent US10106532B2, “Inhibitors of beta-hydroxylase for treatment of cancer” (MIDWESTERN UNIVERSITY, priority 2012, dated 2018).

On to `NC1=C(O)C(=O)C(c2cccc(F)c2)O1` (centres unmarked) [Example 1k, 5-amino-4-hydroxy-2-(3-fluorophenyl)-furan-3-one], for which the melting point came out at 168 °C.
In turn, `NC1=C(O)C(=O)C(c2cccc(F)c2F)O1` (centres unmarked) [Example 1m, 5-amino-4-hydroxy-2-(2,3-difluorophenyl)-furan-3-one] registered a melting point of 193 °C.
`NC1=C(O)C(=O)C(c2cc(F)cc(F)c2)O1` (centres unmarked) [Example 1r, 5-amino-4-hydroxy-2-(3,5-difluorophenyl)-furan-3-one] displayed a melting point of 190 to 191 °C.
Still for that read-out and setting: under `NC1=C(O)C(=O)C(c2ccccc2F)O1` (centres unmarked) [Example 1j, 5-amino-4-hydroxy-2-(2-fluorophenyl)-furan-3-one] stands 160 to 163 °C.
On the same count and under the same terms, with `NC1=C(O)C(=O)C(c2c(F)cccc2F)O1` (centres unmarked) [Example 1p, 5-amino-4-hydroxy-2-(2,6-difluorophenyl)-furan-3-one] the figure was 159 to 160 °C.
Same read-out and setting: with `NC1=C(O)C(=O)C(c2ccc(F)c(F)c2)O1` (centres unmarked) [Example 1q, 5-amino-4-hydroxy-2-(3,4-difluorophenyl)-furan-3-one] the figure was 190 to 194 °C; with `CC(=O)OC1=C(N)OC(c2ccc(Cl)cc2)C1=O` (centres unmarked) [Example 2c, 2-(4-chlorophenyl)-4-(acetoxy)-5-amino-3(2H)-furanone], 221 to 222 °C; with `NC1=C(O)C(=O)C(c2ccc(Cl)cc2)O1` (centres unmarked) [Example 1c, 5-amino-4-hydroxy-2-(4-chlorophenyl)-furan-3-one], 221 to 222 °C.
The compound `NC1=C(OS(=O)(=O)c2ccccc2)C(=O)C(c2ccc(Cl)cc2)O1` (centres unmarked) [Compound 7c, 2-(4-chlorophenyl)-4-[[phenylsulfonyl]oxy]-5-amino-3(2H)-furanone] displayed a melting point of 190 to 195 °C.
The compound `NC1=C(O)C(=O)C(c2ccc(F)cc2F)O1` (centres unmarked) [Example 1n, 5-amino-4-hydroxy-2-(2,4-difluorophenyl)-furan-3-one] gave a melting point of 182 to 183 °C.
The same measure, in the same setting: under `NC1=C(O)C(=O)C(c2cc(F)ccc2F)O1` (centres unmarked) [Example 1o, 5-amino-4-hydroxy-2-(2,5-difluorophenyl)-furan-3-one] stands 196 °C.
Take `CCS(=O)(=O)Nc1oc(-c2ccc(Cl)cc2)c(O)c1O` [MO-1-500]: the colony formation entry in the data set on FOCUS HCC cells is on record as “substantial inhibitory effects; also recorded: strikingly inhibits”. The “specificity for the β-hydroxylase activity of ASPH” value in the data set with NIH-3T3 cells (FOCUS (express ASPH) versus NIH-3T3 (do not express ASPH)) is “not specific for ASPH”. Also, the “cell proliferation and metabolic activity” value with NIH-3T3 cells (NIH-3T3 cells, micromolar concentrations) is on record as “striking affects; also recorded: growth inhibited”; in the data set on FOCUS cells [1], “striking affects; also recorded: growth inhibited”. In the data set with FOCUS cells [2], the “cell migration / motility” value was “pronounced effect”. The “identified as hits (screening for inhibition of β-hydroxylase activity)” value on ASPH [3] was “identified as hits”. In addition, on ASPH [3] (5 μM), the ASPH enzymatic activity result is “inhibited”. Also, the “ASPH enzymatic inhibitory activity (β-hydroxylase)” value at ASPH [3] (concentration not given) is listed as “inhibit”. For the same compound, the ASPH binding entry on ASPH [4] is “confirmed to demonstrate ASPH binding”. Moreover, in the data set with FOCUS cells [5], the invasiveness result is on record as “pronounced effect”. In the data set with FOCUS cells [6] (1 μM), the “number of colonies formed and colony size in soft agar” value is given as “dramatically reduced”. In the data set on FOCUS cells [6] (0.5, 1, and 5 μM), the “number and size of FOCUS cell colonies in soft agar” value was “striking reduction”.

What is called melting point is the temperature, or range, at which the solid turns liquid.
